Here are results for 10 compounds from ChEMBL document CHEMBL4715849, “Recent Progress in the Discovery of Antifungal Agents Targeting the Cell Wall” (J Med Chem, 2020).

For series [1], the system named is Candida albicans. The series can be described thus: Antifungal activity against Candida albicans infected in mouse assessed as protection against fungus-induced lethal infection. It is filed as functional. As to conditions: read-out: PD50.
Series [2] can be described thus: Inhibition of Candida albicans GFA1 using D-Fru6P and L-glutamine as substrate incubated for 30 mins by Elson-Morgan method.
Series [3] concerns Candida albicans. The series can be described thus: Antifungal activity against Candida albicans ATCC 10231 by CLSI-based serial dilution method. The format is functional.
The subject of series [4] is Aspergillus fumigatus. The series can be described thus: Antifungal activity against Aspergillus fumigatus clinical isolate 293 infected in Hartley guinea pig model of invasive pulmonary aspergillosis assessed as pig median survival time at 10 mg/kg, sc administered until day 8 starting from day 1 post infection. It is filed as functional, Af293. As to conditions: time 8 day.

The test system of series [5] is Aspergillus fumigatus. The series can be described thus: Antifungal activity against Aspergillus fumigatus clinical isolate 293 infected in Hartley guinea pig model of invasive pulmonary aspergillosis assessed as percent survival of pig at 10 mg/kg, sc administered until day 8 starting from day 1 post infection. As to conditions: Af293, sc, 192 h, time 8 day. The format is functional.

Series [6] concerns Candida albicans. The series can be described thus: Antifungal activity against Candida albicans FP614 by agar dilution method. The format is functional.
For series [7], the system named is Candida albicans. The series can be described thus: Antifungal activity against Candida albicans FP615 by agar dilution method. It is filed as functional.
Series [8] deals with Candida albicans. The series can be described thus: Antifungal activity against Candida albicans FP616 by agar dilution method. It is filed as functional. (In general: In agar dilution the substance is mixed into plates at graded concentrations.)
The test system of series [9] is Candida albicans. The series can be described thus: Antifungal activity against Candida albicans FP622 by agar dilution method. The format is functional.
Another series deals with Candida tropicalis. The series can be described thus: Antifungal activity against Candida tropicalis FP583 by agar dilution method. The format is functional.
Series [10] has as its system Pichia kudriavzevii. The series can be described thus: Antifungal activity against Candida krusei FP585 by agar dilution method. The format is functional.
Series [11] concerns Candida parapsilosis. The series can be described thus: Antifungal activity against Candida parakrusei FP586 by agar dilution method. The settings on record: Lodderomyces parapsilosis. The format is functional.
Series [12] is described as follows: Inhibition of Candida albicans glucosamine-6-phosphate synthase by Elson-Morgan method.
For series [13], the system named is Candida albicans. The series can be described thus: Antifungal activity against Candida albicans ATCC 10261 incubated for 24 hrs by serial dilution method. It is filed as functional.
Series [14] has as its system Candida albicans. The series can be described thus: Antifungal activity against Candida albicans ATCC 26278 incubated for 24 hrs by serial dilution method. The format is functional.
Series [15] relates to Nakaseomyces glabratus. The series can be described thus: Antifungal activity against Candida glabrata DSM 11226 by CLSI-based serial dilution method. It is filed as functional.
Series [16] in a line: Antifungal activity against Candida arborea KKP319 by CLSI-based serial dilution method. It is filed as functional.
The test system of series [17] is Pichia kudriavzevii. The series can be described thus: Antifungal activity against Candida krusei DSM 6128 by CLSI-based serial dilution method. It is filed as functional.
The test system of series [18] is Candida albicans. The series can be described thus: Antifungal activity against Candida albicans Ca2323/ORF6.945 by CLSI method. It is filed as functional.
Series [19] concerns Candida albicans. The series can be described thus: Antifungal activity against Candida albicans Ca1055 by CLSI method. It is filed as functional.
For series [20], the system named is Candida parapsilosis. The series can be described thus: Antifungal activity against Candida parapsilosis ATCC22019 by CLSI method. As to conditions: Lodderomyces parapsilosis. It is filed as functional.
In the next series the test system is Clavispora lusitaniae. The series can be described thus: Antifungal activity against Candida lusitaniae MY1396 by CLSI method. The format is functional.
Series [21] has as its system Nakaseomyces glabratus. The series can be described thus: Antifungal activity against Candida glabrata MY1381 by CLSI method. It is filed as functional.
Series [22] is described as follows: Elimination half life life in iv dosed human. The settings on record: in vivo.
For series [23], the system named is Candida albicans. The series can be described thus: Antifungal activity against Candida albicans CY1002 infected in iv dosed ICR mouse administered as single dose measured on day 7. It is filed as functional. The settings on record: 168 h, time 7 day.
Series [24] has as its system Aspergillus fumigatus. The series can be described thus: Antifungal activity against Aspergillus fumigatus MF5668 by CLSI method. The format is functional.

The structures appear in SMILES notation. ≈ marks a conversion by molar mass, not a printed value. Numbered stars: 1 amine (or outer) side, 2 acyl side, 3 side chain; on linkers, the order of the positions; unused ones are H or OH. Bridge positions count the residues as written; N and C are the ends. Square brackets hold non-standard residues; d marks the D form. Peptide text beside a SMILES is read from it. * marks the point of attachment. pTerphenylCO(4''-OnC5H11) = CCCCCOc1ccc(-c2ccc(-c3ccc(C(=O)*)cc3)cc2)cc1; Orn(4R-OH,5R-OH) = O=C([C@H](C[C@@H](O)[C@@H](O)N[*:3])N[*:1])[*:2]; hTyr(3S-OH,4S-OH) = N[C@H](C(=O)O)[C@H](O)[C@@H](O)c1ccc(O)cc1; Pro(3S-OH,4S-Me) = C[C@H]1CN[C@H](C(=O)O)[C@H]1O; Hyp = O=C(O)[C@@H]1C[C@@H](O)CN1 Where only a bound is given, the exact number is not on record here.

For the compound `COc1cc(O)c2c(c1)C(=O)c1c(cc3c(c1O)-c1c(cc(C)c(C(=O)N[C@H](CO)C(=O)O)c1O)[C@H](O[C@@H]1O[C@H](C)[C@H](O)[C@H](O[C@@H]4OC[C@@H](O)[C@H](O)[C@H]4O)[C@H]1O)[C@H]3O)C2=O`, the ED50 in the series on Candida albicans [1] turned out to be 33 mg/kg.
As to `CC(=O)N[C@@H](CO)[C@@H](O)[C@H](O)[C@H](O)CS(=O)(=O)O`, the IC50 (usually the midpoint of a concentration-inhibition curve) in [2] is over 5000 µM. In the series with Candida albicans [3], the lowest concentration to inhibit growth (MIC) was 1000 µg/mL (≈ 3480 µM).
Take `COc1cc(C[C@@H](O)[C@@H]2NC(=O)[C@@H]3C[C@@H](O)CN3C(=O)[C@H]([C@@H](C)O)NC(=O)[C@H](NC[C@H]3CC[C@H](c4nnc(-c5ccc(N6CCC(OC)(C7CCCCC7)CC6)cc5)s4)CC3)C[C@@H](O)CNC(=O)[C@@H]3[C@@H](O)[C@@H](C)CN3C(=O)[C@H]([C@H](O)CCNC(CO)CO)NC2=O)ccc1O`: the Time in the series with Aspergillus fumigatus [4] is 9.5 days. Moreover, in the series on Aspergillus fumigatus [5], the survival at 10 mg/kg came out at 31.2%.
`CCC/C=C/C=C/[C@@H](O)C/C=C/C=C/C(=O)O[C@H]1[C@H](O[C@@H]2O[C@H](COC(=O)/C=C/C=C\CCCCC)[C@H](O)[C@H](O)[C@H]2O)[C@@H](CO)O[C@]2(OCc3cc(O)cc(O)c32)[C@@H]1O`: the minimum inhibitory concentration (MIC) with Candida albicans [6], against Candida albicans [7], in the series with Candida albicans [8], with Candida albicans [9], with Candida tropicalis and against Pichia kudriavzevii [10] was 0.1 µg/mL (≈ 0.12 µM) each time. Also, the lowest concentration to inhibit growth with Candida parapsilosis [11] (MIC) was 0.1 µg/mL (≈ 0.12 µM).
For the compound `N[C@@H](CO)[C@@H](O)[C@H](O)[C@H](O)COP(=O)(O)O`, in series [12], the IC50 stood at 230 µM. In addition, the minimum inhibitory concentration (MIC) with Candida albicans [13] and in the series on Candida albicans [14] was 5000 µg/mL (≈ 19100 µM) each time.
With `COS(=O)(=O)C[C@H]1OC(O)[C@H](N)[C@@H](O)[C@@H]1O` (stereo partly specified), the MIC (with Candida albicans [3]; with Nakaseomyces glabratus [15]; in series [16]; against Pichia kudriavzevii [17]) was over 4000 µg/mL throughout.
For `COc1ccc(NC(=O)COc2cccc(OCC(C)C)c2)cc1`, the MIC (in general, the lowest concentration that inhibits growth of the organism) against Candida albicans [18] worked out at 4 µg/mL (≈ 12.1 µM); in the series on Candida albicans [19], 4 µg/mL (≈ 12.1 µM); against Candida parapsilosis [20], 2 µg/mL (≈ 6.07 µM); in the series on Clavispora lusitaniae it was 4 µg/mL (≈ 12.1 µM); in the series on Nakaseomyces glabratus [21] it was 4 µg/mL (≈ 12.1 µM).
Consider `CCCCCOc1ccc(-c2ccc(-c3ccc(C(=O)N[C@H]4C[C@@H](O)[C@@H](O)NC(=O)[C@@H]5[C@@H](O)[C@@H](C)CN5C(=O)[C@H]([C@@H](C)O)NC(=O)[C@H]([C@H](O)[C@@H](O)c5ccc(O)cc5)NC(=O)[C@@H]5C[C@@H](O)CN5C(=O)[C@H]([C@@H](C)O)NC4=O)cc3)cc2)cc1` [ANIDULAFUNGIN] ({pTerphenylCO(4''-OnC5H11)}-[Orn(4R-OH,5R-OH)]T[Hyp][hTyr(3S-OH,4S-OH)]T[Pro(3S-OH,4S-Me)]; lactam 1-C), for which the half-life (in general, the time needed for the level to fall by half in the phase considered) in series [22] was 24 h. Also, the ED50 in the series on Candida albicans [23] was 0.22 mg/kg.
`COc1cc(O)c2c(c1)C(=O)c1c(cc3c(c1O)-c1c(cc(C)c(C(=O)NC(C)C(=O)O)c1O)[C@H](O[C@@H]1O[C@H](C)[C@H](O)[C@H](O[C@@H]4OC[C@@H](O)[C@H](O)[C@H]4O)[C@H]1O)[C@H]3O)C2=O` (stereo partly specified): the ED50 in the series with Candida albicans [1] was 71 mg/kg.
On to `Nc1ccccc1C(=O)OCC#CCOC(=O)c1ccccc1N`, for which the MIC with Candida albicans [18] was 4 µg/mL (≈ 12.3 µM); with Candida albicans [19], 4 µg/mL (≈ 12.3 µM); with Candida parapsilosis [20] it was 2 µg/mL (≈ 6.17 µM); against Aspergillus fumigatus [24], 4 µg/mL (≈ 12.3 µM).
